In data set [1] the test system is PC-12 cells. Briefly: Cytotoxicity assay (MTS) in PC-12 cells. It is filed as cell-based, rat. Particulars: up to 10 μM, 24 and 48 hours. On the procedure:
(§1) Human prostate cancer cell line PC-3 cells (obtained from ATCC, Manassas, USA; ATCC Number: CRL-1435) were cultured in F-12 (Gibco) and Advanced DMEM (Gibco) (1:1) with 10% FBS, 1% penicillin/streptomycin and 1% L-glutamine. Rat pheochromocytoma PC-12 cells (obtained from ATCC, Manassas, USA; ATCC Number: CRL-1721) were cultured in Advanced DMEM (Gibco) with 5% FBS, 10% heat-inactivated horse serum, 1% penicillin/streptomycin and 1% L-glutamine.
6.5 × 10^4 PC-3 cells/ml were seeded in a 96-well plate. PC-12 cells were seeded on poly-L-lysine (Sigma) coated plates in serum-free medium at a concentration of 4 × 10^4/well. Cells were treated with various concentrations of compounds (1, 2.5, 5 and 10 μM) for 24 or 48 hours. Cytotoxicity was determined with MTS reagent (CellTiter 96 Aqueous One Solution Cell Proliferation Assay, Promega) and A492 measured after 1 hour.

A further data set has as its target T1, Cathepsin S (Homo sapiens, UniProt P25774).
T1 construct: made in house; host or cells: Pichia pastoris
The data set can be described thus: Ki against cathepsin S (Z-VVR-AMC). It is filed as biochemical. Conditions: SigmaPlot at 3 different substrate concentrations; pH 6.5. On the procedure:
(§2) Recombinant or native human cathepsins were used: recombinant cathepsin X and cathepsin S were expressed in Pichia pastoris, recombinant cathepsins B and L in E. coli, [43], native cathepsin H was isolated from human liver. Assay buffers for determining activities of cathepsins X and L consisted of 100 mM sodium acetate buffer, pH 5.5, for cathepsins H, S and B (endopeptidase activity) of 100 mM phosphate buffer pH 6.8, 6.5 and 6.0, respectively and for cathepsin B (exopeptidase activity) of 60 mM acetate buffer pH 5.0. Each assay buffer contained 0.01% Triton X-100 to prevent false positive inhibition due to aggregation of compounds[45], 5 mM cysteine, 1.5 mM EDTA and 0.1% PEG 8000. Enzymes were activated at 37 °C for 5 min before the assays.
(§3) Ki was determined by measuring the initial rate of hydrolysis at three different substrate concentrations (Supplementary Table S2) in the presence of seven different compound concentrations (0, 20, 40, 60, 80, 100 and 200 μM). 90 μL of the activated cathepsin was added to a black 96-well plate with 5 μL of the substrate and 5 μL of the compound. Formation of the fluorescent degradation product was monitored continuously at 460 nm ± 10 nm with excitation at 380 nm ± 20 nm (for AMC substrates) and, as noted above for Abz substrates, at 37 °C. All measurements were performed twice and in duplicate. The resulting data were analyzed by non-linear regression using the software SigmaPlot®, Enzyme Kinetics Module™ 1.3 and were fitted to the equation v = v max [S]/([S] (1 + [I]/αK i ) + K m (1 + [I]/K i )) (first group of compounds). For Ki determination against cathepsin X for the compounds from the second group, progress curves in the absence and presence of each putative inhibitor were fitted to the reaction mechanism presented in Fig. 3b. In this case the resulting data as well as reactivation curves were fitted to the equation system presented in Fig. 3c using ENZO application. For calculation of kinetic parameters from reaction progress curves the fluorescence coefficient for conversion of arbitrary fluorescence units to concentration was first determined. The fluorescence coefficient was calculated as the slope from the plot of initial substrate concentration vs. height of the plateau of the progress curve after complete hydrolysis of increasing concentrations of substrate, using linear regression.
(§4) Supplementary Table S2. Substrates used for the various cathepsins and their concentrations […]
(§5) Enzyme Substrate Concentration (µM) Reference/Company cathepsin X Abz-FEK(Dnp)-OH 3.25, 6.5, 13 Puzer et al.3 cathepsin B - endopept. Z-RR-AMC 60, 180, 360 Bachem cathepsin B - exopept. Abz-GIVRAK(Dnp)-OH 1, 3, 6 Bachem cathepsin S Z-VVR-AMC 0.5, 1, 1.5 Biomol cathepsin L Z-FR-AMC 0.5, 1, 4 Bachem cathepsin H Z-R-AMC 20, 80, 160 Biomol […]

The test system of data set [2] is PC-12 cells. Briefly: Neurite outgrowth assay. It is filed as cell-based, rat. Particulars: 10 µM; 48 h; vs DMSO control. The procedure: as §1
PC-12 cells were seeded in 96-well plates (4 × 10^4/well) coated with poly-L-lysine. Next day, the cells were treated with compounds (10 µM) in serum-free medium, and neurite outgrowth was measured after 48 h using Neurite Outgrowth Staining Kit (Molecular Probes), in accordance with the manufacturer’s instructions. Fluorescence intensity was measured at 525 nm with excitation at 483 nm for cell viability indicator and at 567 nm with excitation at 554 nm for cell membrane indicator. Results, expressing increased neurite outgrowth, were normalized to cells treated with DMSO.

The target of a further data set is cathepsin X (Homo sapiens, UniProt Q9UBR2). Briefly: Determination of relative inhibition of cathepsin X. It is filed as biochemical. Set-up: made in house; host or cells: Pichia pastoris. The procedure: as §2
Sequence of cathepsin X (Q9UBR2 62-303): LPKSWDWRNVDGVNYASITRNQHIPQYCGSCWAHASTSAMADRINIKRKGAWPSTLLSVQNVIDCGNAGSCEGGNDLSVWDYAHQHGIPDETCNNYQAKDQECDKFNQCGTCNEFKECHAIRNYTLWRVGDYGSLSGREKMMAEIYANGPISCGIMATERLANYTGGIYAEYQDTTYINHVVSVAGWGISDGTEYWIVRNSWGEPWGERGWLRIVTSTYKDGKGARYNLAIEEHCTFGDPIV
Abz-FEK(Dnp)-OH was used as cathepsin X specific substrate in activity assays. 90 μL of activated cathepsin X (20 nM) was added to a black 96-well plate with 5 μL of substrate (3.25 μM final concentration) and 5 μL of the compound (50 μM final concentration). The reaction was monitored continuously at 420 nm ± 10 nm with excitation at 320 nm ± 20 nm and at 37 °C. Relative inhibition (%) was calculated with the equation (1 − v i/v 0) × 100, where v i is reaction velocity in the presence of the compound and v 0 is reaction velocity without the compound.

Data set [3] addresses T2, Cathepsin B (endopeptidase a.) (Homo sapiens, UniProt P07858).
T2 construct: made in house; host or cells: E. coli
Briefly: Ki against cathepsin B endopeptidase activity (Z-RR-AMC). It is filed as biochemical. Conditions: SigmaPlot at 3 different substrate concentrations; pH 6.0. The procedure:
as §2, §3, §4, §5

Another data set concerns the target T3, Cathepsin H (Homo sapiens, UniProt P09668).
T3 construct: native cathepsin H was isolated from human liver; from tissue; host or cells: human liver
Briefly: Ki against cathepsin H (Z-R-AMC). It is filed as biochemical. Particulars: SigmaPlot at 3 different substrate concentrations; pH 6.8. On the procedure: as §2, §3, §4, §5

Data set [4] concerns the target T4, cathepsin X in PC-12 cell lysates (Rattus norvegicus, UniProt Q9R1T3).
T4 construct: endogenous in cells; host or cells: PC-12
The data set can be described thus: Cathepsin X activity in PC-12 cell lysates. It is filed as cell-based. Conditions: 10 μM. The procedure:
To detect cathepsin X activity in cell lysates, 95 μL of activated cell lysates (0.2 mg/mL total protein in assay buffer) were added to a black 96-well plate containing 5 μL of the substrate. The further procedure was the same as above. In some experiments lysates of non-treated cells were pre-incubated with 10 μM of compounds for 30 minutes and then activity was measured as described above.
For testing the enzyme activity in cell lysates, cells were treated with 10 μM of compounds. After 24 hours lysates were prepared in 50 mM Na acetate buffer pH 5.5 with 1 mM EDTA, 100 mM NaCl and 0.25% Triton X-100. Total protein concentration was determined by DC Protein Assay (Bio Rad) according to the instructions.

Like-named read-outs stand apart in the source and are kept apart here.

For orientation: inhibition means the relative decrease from the control value, in per cent. One may read the Ki as the dissociation constant of the complex between target and ligand, obtained from inhibition or displacement. High values mean a looser hold on the target, low ones a stronger hold on the target.

T4 sequence (Q9R1T3 64-306): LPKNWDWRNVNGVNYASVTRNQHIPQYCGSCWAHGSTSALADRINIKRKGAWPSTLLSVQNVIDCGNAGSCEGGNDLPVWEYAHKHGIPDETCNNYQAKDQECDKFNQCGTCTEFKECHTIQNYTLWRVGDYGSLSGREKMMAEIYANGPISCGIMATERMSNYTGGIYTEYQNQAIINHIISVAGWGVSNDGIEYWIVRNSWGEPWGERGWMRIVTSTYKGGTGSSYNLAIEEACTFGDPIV
T1 sequence (P25774 115-331): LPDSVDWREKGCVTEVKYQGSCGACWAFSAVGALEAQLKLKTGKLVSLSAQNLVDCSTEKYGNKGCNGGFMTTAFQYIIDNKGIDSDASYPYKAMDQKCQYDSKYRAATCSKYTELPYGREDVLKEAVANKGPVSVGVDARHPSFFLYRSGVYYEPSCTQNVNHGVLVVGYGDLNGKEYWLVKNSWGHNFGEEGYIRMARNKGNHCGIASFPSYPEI
T3 sequence (P09668 116-335 limits assumed, other chains not shown): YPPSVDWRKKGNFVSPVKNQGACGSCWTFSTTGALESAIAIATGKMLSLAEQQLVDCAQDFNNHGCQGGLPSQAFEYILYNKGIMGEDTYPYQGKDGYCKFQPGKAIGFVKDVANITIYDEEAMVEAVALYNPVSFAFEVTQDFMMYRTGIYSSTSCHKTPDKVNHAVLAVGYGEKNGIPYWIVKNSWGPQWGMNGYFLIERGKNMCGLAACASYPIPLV

`CC(C)n1cnnc1SCC(=O)c1ccc2c(c1)OCCO2` [Compound 22, 1-(2,3-Dihydrobenzo[b][1,4]dioxin-6-yl)-2-((4-isopropyl-4H-1,2,4-triazol-3-yl)thio)ethan-1-one]: in the data set with PC-12 cells [1], the “cytotoxicity to PC-12 cells” value is “not cytotoxic”. In addition, the “Ki Cathepsin S” value at Cathepsin S is reported as “n.i”. For the same compound, the “increase of neurite outgrowth” value with PC-12 cells [2] worked out at 85%. For the same compound, the inhibition at 50 µM at cathepsin X (screening at 50 μM compound, read-out: relative inhibition of cathepsin X) is more than 70%; on cathepsin X (second group, 50 μM compound, 1 h preincubation, read-out: % inhibition (1 h preincubation)) it was 75%. Moreover, the Ki in data set [3] is 310 ± 68.3 µM; at Cathepsin H it was more than 1000 µM. Also, in data set [4], the “inhibition of cathepsin X activity in PC-12 cell lysates” value is on record as “most potent”.

For the origin of these results see paper PMC5597618, “Identification and characterization of the novel reversible and selective cathepsin X inhibitors” (Scientific Reports, 2017).
